{"source": "patent US20230010375A1", "about": "“ANTI-VIRAL COMPOSITION” (priority 2020, published 2023)", "system": "COVID-19", "conditions": "human, in vivo", "data": [{"smiles": "O=C([O-])O.[Na+]", "note": "[bicarbonate of soda, sodium bicarbonate]", "values": [{"measurement": "second swab test (Covid-19)", "result": "non-conclusive"}, {"measurement": "third swab test (Covid-19)", "result": "negative"}, {"measurement": "symptoms after the first 2/3rds of a dose", "setting": "po", "result": "no symptoms"}]}]}
